32 compounds from ChEMBL document CHEMBL4190162, “SAR and identification of 2-(quinolin-4-yloxy)acetamides as Mycobacterium tuberculosis cytochrome bc1 inhibitors” (Medchemcomm, 2016) can be followed below.

≈ marks a conversion by molar mass, not a printed value.

Test [1] relates to Mycobacterium tuberculosis. The experiment in a line: Antimycobacterial activity against Mycobacterium tuberculosis H37Rv harboring cyd deletion mutant measured after 2 weeks by microplate alamar blue assay. It counts as functional. Background: Alamar Blue is a resazurin reagent that responds to reducing activity.
Test [2] has as its system Mycobacterium tuberculosis H37Rv. The experiment in a line: Inhibition of QCR6 A317T mutant in Mycobacterium tuberculosis H37Rv harboring cyd deletion mutant assessed as reduction in bacterial growth relative to wild-type QCR6.
For test [3] the test system is unchanged. The test is described as follows: Inhibition of QCR4 A396T mutant in Mycobacterium tuberculosis H37Rv harboring cyd deletion mutant assessed as reduction in bacterial growth relative to wild-type QCR4.
Test [4] has the same test system. The test is described as follows: Inhibition of QCR5 M342I mutant in Mycobacterium tuberculosis H37Rv harboring cyd deletion mutant assessed as reduction in bacterial growth relative to wild-type QCR5.
The test system is the same in test [5]. The experiment in a line: Inhibition of QCR7 S182T mutant in Mycobacterium tuberculosis H37Rv harboring cyd deletion mutant assessed as reduction in bacterial growth relative to wild-type QCR7.
Test [6] has the same test system. The experiment in a line: Inhibition of QCR3 W312G mutant in Mycobacterium tuberculosis H37Rv harboring cyd deletion mutant assessed as reduction in bacterial growth relative to wild-type QCR3.
For test [7] the test system is unchanged. The test is described as follows: Inhibition of QCR1 A317V mutant in Mycobacterium tuberculosis H37Rv harboring cyd deletion mutant assessed as reduction in bacterial growth relative to wild-type QCR1.
Test [8] has the same test system. The test is described as follows: Inhibition of QCR2 M342T mutant in Mycobacterium tuberculosis H37Rv harboring cyd deletion mutant assessed as reduction in bacterial growth relative to wild-type QCR2.

As to `COc1ccc2nc(C)cc(OCC(=O)NCCCc3ccccc3)c2c1`, in test [1], the MIC (usually the lowest concentration that inhibits growth of the organism) is 2.14 µM (≈ 0.78 µg/mL).
`COc1ccc2nc(C)cc(OCC(=O)NCCc3ccc(OC)c(OC)c3)c2c1` had a minimum inhibitory concentration (MIC) in test [1] of 90.13 µM (≈ 37 µg/mL). This MIC lies about 42-fold higher than the previous one.
Consider `COc1ccc2nc(C)cc(OCC(=O)Nc3ccccc3)c2c1`, for which the fold change (FC) is 30 in test [2]; 5 in test [3]; 1.8 in test [4]; 19.5 in test [5]; 235 in test [6]; above 1250 in test [7]. Besides, the fold change (FC) in test [8] is 3.8. Moreover, the MIC in test [1] stood at 0.12 µM (≈ 0.0387 µg/mL).
In test [1], `COc1ccc2nc(C)cc(OCC(=O)Nc3ccccc3Cl)c2c1` registered an MIC below 0.067 µM.
Consider `COc1ccc2nc(C)cc(OCC(=O)Nc3cccc(Br)c3)c2c1`, for which the MIC in test [1] was found to be 0.37 µM (≈ 0.148 µg/mL).
On to `COc1ccc(NC(=O)COc2cc(C)nc3ccc(OC)cc23)cc1`, for which the fold change (FC) in test [2] worked out at 24.5; in test [3] it was 3.1; in test [4], 3.1; in test [5] it was 15.9; in test [6], 24.5; in test [7] it was 63.9. Besides, the fold change (FC) in test [8] worked out at 4.1. The same compound came in with an MIC in test [1] of 0.14 µM (≈ 0.0493 µg/mL).
In the case of `COc1ccc2nc(C)cc(OCC(=O)Nc3ccc(-c4ccccc4)cc3)c2c1`, the minimal inhibitory concentration (MIC) in test [1] amounted to 0.12 µM (≈ 0.0478 µg/mL).
The same measure, in the same setting: in the case of `COc1ccccc1NC(=O)COc1cc(C)nc2ccc(Br)cc12` it was 0.5 µM (≈ 0.201 µg/mL).
Consider `COc1ccc(OC)c(CCNC(=O)COc2cc(C)nc3ccc(OC)cc23)c1`, for which the minimum inhibitory concentration (MIC) in test [1] came out at 7.62 µM (≈ 3.13 µg/mL).
In test [1], `COc1ccc2nc(C)cc(OCC(=O)Nc3ccc(OC)c(OC)c3)c2c1` gave an MIC of 3.14 µM (≈ 1.2 µg/mL).
In turn, `COc1ccc2nc(C)cc(OCC(=O)NCCc3ccccc3)c2c1` registered an MIC in test [1] of 4.45 µM (≈ 1.56 µg/mL).
Take `COCCNC(=O)COc1cc(C)nc2ccc(OC)cc12`: the MIC in test [1] is 41.06 µM (≈ 12.5 µg/mL).
Regarding `COc1ccc2nc(C)cc(OCC(=O)Nc3ccccc3OC)c2c1`, the fold change (FC) worked out at 24.5 in test [2]; 4.1 in test [3]; 6.1 in test [4]; 15.9 in test [5]; 46.9 in test [6]; 46.9 in test [7]. Moreover, the fold change (FC) in test [8] worked out at 1.4. In test [1], this compound gave an MIC of 0.14 µM (≈ 0.0493 µg/mL).
Turning to `c1ccc(Cn2cnc3c(-c4ccco4)nccc32)cc1`, the fold change (FC) is 10.1 in test [2]; 20.2 in test [3]; 20.2 in test [4]; 61.3 in test [5]; above 81 in test [6]; above 81 in test [7]. Besides, the fold change (FC) in test [8] stood at 20.2. Moreover, the minimal inhibitory concentration (MIC) in test [1] stood at 0.31 µM (≈ 0.0853 µg/mL).
In test [1], `COc1cccc(NC(=O)COc2cc(C)nc3ccc(OC)cc23)c1` showed an MIC of 0.57 µM (≈ 0.201 µg/mL).
Turning to `COc1ccccc1NC(=O)COc1cc(C)nc2ccc(C(F)(F)F)cc12`, in test [1], the minimal inhibitory concentration (MIC) is above 128 µM.
For the compound `COc1ccc2nc(C)cc(OCC(=O)NCc3ccccc3)c2c1`, the fold change (FC) was 23.5 in test [2]; 3.9 in test [3]; 3.9 in test [4]; 15.7 in test [5]; 47 in test [6]; above 250 in test [7]. Moreover, the fold change (FC) in test [8] amounted to 3. Also, in test [1], the MIC was determined as 0.59 µM (≈ 0.198 µg/mL).
Compound `COc1ccccc1NC(=O)COc1cc(C)nc2ccc(Cl)cc12` displayed a minimum inhibitory concentration (MIC) in test [1] of 1.09 µM (≈ 0.389 µg/mL).
Compound `COc1ccccc1NC(=O)COc1cc(C)nc2ccccc12` showed an MIC in test [1] of 7.13 µM (≈ 2.3 µg/mL).
As to `COc1ccc2nc(C)cc(OCC(=O)Nc3ccc4c(c3)OCO4)c2c1`, the fold change (FC) in test [2] was found to be 32.9; in test [3] it was 5.6; in test [4], 1.4; in test [5], 32.9; in test [6], 17.1; in test [7] it was 134. Further, in test [8], the fold change (FC) was 2.1. Moreover, in test [1], the MIC is 0.19 µM (≈ 0.0696 µg/mL).
In test [1], `C#CCNC(=O)COc1cc(C)nc2ccc(OC)cc12` showed an MIC of 21.98 µM (≈ 6.25 µg/mL).
`COc1ccccc1NC(=O)COc1cc(C)nc2ccc(C)cc12` showed an MIC in test [1] of 0.45 µM (≈ 0.151 µg/mL). Compared with the last compound, the MIC is about 49-fold lower.
Same read-out and setting: in the case of `COc1ccc2nc(C)cc(OCC(=O)Nc3ccc(Cl)cc3)c2c1` it was 0.2 µM (≈ 0.0714 µg/mL); in that of `COc1ccc2nc(C)cc(OCC(=O)NCCc3ccc4c(c3)OCO4)c2c1`, 3.04 µM (≈ 1.2 µg/mL).
As for `COc1ccc2nc(C)cc(OCC(=O)NCc3ccc4c(c3)OCO4)c2c1`, the fold change (FC) in test [2] was above 32.5; in test [3], above 6.3; in test [4], above 12.5; in test [5], above 95.8; in test [6], above 25; in test [7] it was above 130. In test [8], the fold change (FC) was above 12.5. The same compound gave a minimum inhibitory concentration (MIC) in test [1] below 0.063 µM.
For the compound `Nc1ccc(C(=O)O)c(O)c1` [AMINOSALICYLIC ACID], the fold change (FC) in test [2] turned out to be 0.2; in test [3] it was 0.3; in test [4] it was 0.5; in test [5], 0.5; in test [6] it was 0.5; in test [7], 0.5. In test [8], the fold change (FC) turned out to be 0.3. In test [1], the MIC was found to be 0.6 µM (≈ 0.0919 µg/mL).
Turning to `COc1ccc2nc(C)cc(OCC(=O)Nc3ccc(Br)cc3)c2c1`, the MIC in test [1] came out at 0.17 µM (≈ 0.0682 µg/mL).
As for `COc1ccc2nc(C)cc(OCC(=O)Nc3ccc(C)cc3)c2c1`, the fold change (FC) in test [2] is above 12.5; in test [3], above 2; in test [4] it was 1; in test [5] it was above 16.3; in test [6], above 16.3; in test [7] it was above 32.5. For the same compound, the fold change (FC) in test [8] was above 2. Further, in test [1], the minimum inhibitory concentration (MIC) was below 0.071 µM.
The compound `CC(=O)NC[C@H]1CN(c2ccc(N3CCOCC3)c(F)c2)C(=O)O1` [LINEZOLID] came in with a minimum inhibitory concentration (MIC) in test [1] of 1.56 µM (≈ 0.526 µg/mL).
For the compound `COc1ccc(NC(=O)COc2cc(C)nc3ccc(OC)cc23)c(OC)c1`, the minimal inhibitory concentration (MIC) in test [1] stood at 0.18 µM (≈ 0.0688 µg/mL). Against the preceding compound, the MIC is about 8.7-fold lower.
In test [1], `COc1cc(NC(=O)COc2cc(C)nc3ccc(OC)cc23)cc(OC)c1` gave an MIC of 2.04 µM (≈ 0.78 µg/mL).
In the case of `CCCCCNC(=O)COc1cc(C)nc2ccc(OC)cc12`, the minimum inhibitory concentration (MIC) in test [1] worked out at 0.95 µM (≈ 0.301 µg/mL).
